Data from US20260094676A1, “METHOD AND APPARATUS FOR PREDICTING DRUG BIOAVAILABILITY” (LIVERPOOL JOHN MOORES UNIVERSITY, priority 2022, published 2026).
Counter-ions that a name gives are not always drawn. Like-named read-outs stand apart in the source and are kept apart here.

Key:
[1] = Reversed phase TLC lipophilicity measurement on Leucaena oil device (LOD); settings: for ICHI (isocratic chromatographic hydrophobicity index): LOD R1 to R10, methanol in water mobile phase
Method: Silica gel GF254 plates (5×10 cm) are successively developed by ascending development in the oil solution. Ten consecutive runs were carried out in each of the six tanks set up to prepare the Leucaena oil device (LOD).
The plates were air-dried at room temperature and the plates were developed in saturated development tanks containing 10 mL of the mobile phase. The plates were developed over a path of 7 cm and allowed to air-dry before visualization under UV light at 254 nm. The retardation factor (Rf) was then measured. The development was performed in duplicate.
Rm was computed by the equation: […]
The linear regression of Rm versus organic modifier fraction is governed by the Soczewinski Wachmeister equation: […]
The mobile phase used consisted of various concentrations of methanol in 0.1N HCl and Phosphate buffer pH 6.8.
(§1) Data analysis was done as previously described, Rf was transformed to Rm and linear regression analysis implemented to determine the lipophilicity parameter, ICHI.
(§2) Data analysis was performed as described earlier under data analysis in previous sections. Rf is transformed to Rm and linear regression of Rm versus methanol fraction produces linear regression parameters that provide the lipophilicity metric.

[2] = concomitant intake of kolanut with halofantrine; cited from earlier work
[3] = humans, cited from earlier work
[4] = dogs, cited from earlier work
[5] = Method: The mobile phase used consisted of various concentrations of methanol in 0.1N HCl and phosphate buffer pH 6.8.
as §1, §2

[6] = cited from earlier work
[7] = 48 h
[8] = halofantrine administered postprandially

Compound: O=C(O)c1cn(C2CC2)c2cc(N3CCNCC3)c(F)cc2c1=O [ciprofloxacin hydrochloride]
- Qsi ([1]; LOD, combination with model Garcinia bioflavonoid): about 10

Compound: CCCCNCCC(O)c1cc2c(Cl)cc(Cl)cc2c2cc(C(F)(F)F)ccc12 (stereo not drawn) [desbutylhalofantrine]
- Cmax, effect of concomitant kolanut [2]: significantly decreased
- t1/2, effect of concomitant kolanut [2]: no significant effect
- tmax, effect of concomitant kolanut [2]: no significant effect
- decrease of proportional formation of desbutyl metabolite [3, 8]: 2.4 fold
- decrease of proportional formation of desbutyl metabolite [4, 8]: 6.8 fold

Compound: CCCCN(CCCC)CCC(O)c1cc2c(Cl)cc(Cl)cc2c2cc(C(F)(F)F)ccc12 (stereo not drawn) [halofantrine]
- Solubility interaction quotient (Qsi), fold more lipophilic than caffeine ([1]; LOD, halofantrine versus caffeine): 24 fold
- Qsi ([1]; LOD, ketoconazole and halofantrine): 1.42
- Solubility interaction quotient (Qsi), fold more lipophilic than caffeine ([5]; ODS, halofantrine versus caffeine): 2 fold
- Cmax, effect of concomitant kolanut [2]: significantly decreased
- t1/2, effect of concomitant kolanut [2]: no significant effect
- tmax, effect of concomitant kolanut [2]: no significant effect
- increase of oral bioavailability ([3]; administered postprandially): 3 fold
- increase of oral bioavailability ([4]; administered postprandially): 12 fold
- plasma Hfm/Hf AUC (0-72 h) ratio ([6]; fasted oral administration of Hf with ketoconazole): less than 0.05
- plasma Hfm/Hf AUC (0-72 h) ratio ([6]; fasted oral administration of Hf without ketoconazole): 0.56

Compound: CC(=O)N1CCN(c2ccc(OCC3COC(Cn4ccnc4)(c4ccc(Cl)cc4Cl)O3)cc2)CC1 (stereo not drawn) [ketoconazole]
- Lipophilicity classification based on ICHI [1]: amphiphilic
- ICHI, mean value ([1]; LOD, mean over 0.1N HCl and phosphate buffer pH 6.8 mobile phases): 0.70
- Lipophilicity classification based on ICHI [5]: lipophilic
- ICHI, mean value ([5]; ODS, mean over 0.1N HCl and phosphate buffer pH 6.8 mobile phases): 0.86
- critical point ('critical micellar concentration') of ketoconazole for halofantrine solubility [7]: 0.015%

Compound: COc1ccc2cc(CCC(C)=O)ccc2c1 [nabumetone]
- ICHI (isocratic chromatographic hydrophobicity index) [1]: 0.61-0.63

Compound: Oc1cccc2ccccc12 [α-naphthol]
- ICHI (isocratic chromatographic hydrophobicity index) [1]: 0.52-0.54

Compound: Oc1ccc2ccccc2c1 [β-naphthol]
- ICHI (isocratic chromatographic hydrophobicity index) [1]: 0.46-0.48
